Laboratory results taken from PubChem BioAssay (NCI).
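Dose response: 5 concentrations. Exposure: 48 h. Format: 96-well plates. Endpoint: linear interpolation; highest concentration if not reached. TGI is the concentration that stops growth completely.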

Tests used:
Experiment in all cases: NCI anticancer screen, dose series, 48 h
786-0 renal = tested on: 786-0 renal
A498 renal = tested on: A498 renal
A549 NSCLC = tested on: A549 NSCLC
ACHN renal = tested on: ACHN renal
BT-549 breast = tested on: BT-549 breast
CAKI-1 renal = tested on: CAKI-1 renal
CCRF-CEM leukemia = tested on: CCRF-CEM leukemia
COLO 205 colon = tested on: COLO 205 colon
DU-145 prostate = tested on: DU-145 prostate
EKVX NSCLC = tested on: EKVX NSCLC
HCT-116 colon = tested on: HCT-116 colon
HCT-15 colon = tested on: HCT-15 colon
HL-60(TB) leukemia = tested on: HL-60(TB) leukemia
HOP-62 NSCLC = tested on: HOP-62 NSCLC
HOP-92 NSCLC = tested on: HOP-92 NSCLC
HS 578T breast = tested on: HS 578T breast
HT29 colon = tested on: HT29 colon
IGROV1 ovarian = tested on: IGROV1 ovarian
K-562 leukemia = tested on: K-562 leukemia
KM12 colon = tested on: KM12 colon
LOX IMVI melanoma = tested on: LOX IMVI melanoma
M14 melanoma = tested on: M14 melanoma
MALME-3M melanoma = tested on: MALME-3M melanoma
MCF7 breast = tested on: MCF7 breast
MDA-MB-231 breast = tested on: MDA-MB-231 breast
MDA-MB-435 = tested on: MDA-MB-435
MDA-N = tested on: MDA-N
MOLT-4 leukemia = tested on: MOLT-4 leukemia
NCI-H226 lung = tested on: NCI-H226 lung
NCI-H23 lung = tested on: NCI-H23 lung
NCI-H460 lung = tested on: NCI-H460 lung
NCI-H522 lung = tested on: NCI-H522 lung
NCI/ADR-RES ovarian = tested on: NCI/ADR-RES ovarian
OVCAR-3 ovarian = tested on: OVCAR-3 ovarian
OVCAR-4 ovarian = tested on: OVCAR-4 ovarian
OVCAR-5 ovarian = tested on: OVCAR-5 ovarian
OVCAR-8 ovarian = tested on: OVCAR-8 ovarian
PC-3 prostate = tested on: PC-3 prostate
RPMI-8226 leukemia = tested on: RPMI-8226 leukemia
RXF 393 renal = tested on: RXF 393 renal
SF-268 CNS = tested on: SF-268 CNS
SF-295 CNS = tested on: SF-295 CNS
SF-539 CNS = tested on: SF-539 CNS
SK-MEL-2 melanoma = tested on: SK-MEL-2 melanoma
SK-MEL-28 melanoma = tested on: SK-MEL-28 melanoma
SK-MEL-5 melanoma = tested on: SK-MEL-5 melanoma
SK-OV-3 ovarian = tested on: SK-OV-3 ovarian
SN12C renal = tested on: SN12C renal
SNB-19 CNS = tested on: SNB-19 CNS
SNB-75 CNS = tested on: SNB-75 CNS
SR leukemia = tested on: SR leukemia
SW-620 colon = tested on: SW-620 colon
T-47D breast = tested on: T-47D breast
TK-10 renal = tested on: TK-10 renal
U251 CNS = tested on: U251 CNS
UACC-257 melanoma = tested on: UACC-257 melanoma
UACC-62 melanoma = tested on: UACC-62 melanoma
UO-31 renal = tested on: UO-31 renal

CC(SCc1ccccc1)C(=O)O (centres undefined)
TGI (786-0 renal): > 100 µM | TGI (A498 renal): > 100 µM | TGI (A549 NSCLC): > 100 µM | TGI (ACHN renal): > 100 µM | TGI (BT-549 breast): > 100 µM | TGI (CAKI-1 renal): > 100 µM | TGI (CCRF-CEM leukemia): > 100 µM | TGI (COLO 205 colon): > 100 µM | TGI (DU-145 prostate): > 100 µM | TGI (EKVX NSCLC): > 100 µM | TGI (HCT-116 colon): > 100 µM | TGI (HCT-15 colon): > 100 µM | TGI (HL-60(TB) leukemia): > 100 µM | TGI (HOP-62 NSCLC): > 100 µM | TGI (HOP-92 NSCLC): > 100 µM | TGI (HS 578T breast): > 100 µM | TGI (HT29 colon): > 100 µM | TGI (IGROV1 ovarian): > 100 µM | TGI (K-562 leukemia): > 100 µM | TGI (KM12 colon): > 100 µM | TGI (LOX IMVI melanoma): > 100 µM | TGI (M14 melanoma): > 100 µM | TGI (MALME-3M melanoma): > 100 µM | TGI (MCF7 breast): > 100 µM | TGI (MDA-MB-231 breast): > 100 µM | TGI (MDA-MB-435): > 100 µM | TGI (MDA-N): > 100 µM | TGI (MOLT-4 leukemia): > 100 µM | TGI (NCI-H226 lung): > 100 µM | TGI (NCI-H23 lung): > 100 µM | TGI (NCI-H460 lung): > 100 µM | TGI (NCI-H522 lung): > 100 µM | TGI (NCI/ADR-RES ovarian): > 100 µM | TGI (OVCAR-3 ovarian): > 100 µM | TGI (OVCAR-4 ovarian): > 100 µM | TGI (OVCAR-5 ovarian): > 100 µM | TGI (OVCAR-8 ovarian): > 100 µM | TGI (PC-3 prostate): > 100 µM | TGI (RPMI-8226 leukemia): > 100 µM | TGI (RXF 393 renal): > 100 µM | TGI (SF-268 CNS): > 100 µM | TGI (SF-295 CNS): > 100 µM | TGI (SF-539 CNS): > 100 µM | TGI (SK-MEL-2 melanoma): > 100 µM | TGI (SK-MEL-28 melanoma): > 100 µM | TGI (SK-MEL-5 melanoma): > 100 µM | TGI (SK-OV-3 ovarian): > 100 µM | TGI (SN12C renal): > 100 µM | TGI (SNB-19 CNS): > 100 µM | TGI (SNB-75 CNS): > 100 µM | TGI (SR leukemia): > 100 µM | TGI (SW-620 colon): > 100 µM | TGI (T-47D breast): > 100 µM | TGI (TK-10 renal): > 100 µM | TGI (U251 CNS): > 100 µM | TGI (UACC-257 melanoma): > 100 µM | TGI (UACC-62 melanoma): > 100 µM | TGI (UO-31 renal): > 100 µM

CN1C2=Nc3n(c4ccccc4[n+]3C)CN2c2ccccc21
TGI (786-0 renal): > 100 µM | TGI (A549 NSCLC): > 100 µM | TGI (ACHN renal): > 100 µM | TGI (BT-549 breast): > 100 µM | TGI (CAKI-1 renal): > 100 µM | TGI (CCRF-CEM leukemia): > 100 µM | TGI (COLO 205 colon): 41.9 µM | TGI (DU-145 prostate): > 100 µM | TGI (EKVX NSCLC): > 100 µM | TGI (HCT-116 colon): > 100 µM | TGI (HCT-15 colon): > 100 µM | TGI (HL-60(TB) leukemia): > 100 µM | TGI (HOP-62 NSCLC): > 100 µM | TGI (HOP-92 NSCLC): 81.1 µM | TGI (HS 578T breast): 90.8 µM | TGI (HT29 colon): > 100 µM | TGI (IGROV1 ovarian): > 100 µM | TGI (K-562 leukemia): > 100 µM | TGI (KM12 colon): 46.8 µM | TGI (M14 melanoma): > 100 µM | TGI (MALME-3M melanoma): 18 µM | TGI (MCF7 breast): 33.6 µM | TGI (MDA-MB-231 breast): > 100 µM | TGI (MDA-MB-435): 91 µM | TGI (MDA-N): 50.5 µM | TGI (MOLT-4 leukemia): > 100 µM | TGI (NCI-H23 lung): > 100 µM | TGI (NCI-H460 lung): > 100 µM | TGI (NCI-H522 lung): 65.4 µM | TGI (NCI/ADR-RES ovarian): > 100 µM | TGI (OVCAR-3 ovarian): 34.7 µM | TGI (OVCAR-5 ovarian): > 100 µM | TGI (OVCAR-8 ovarian): > 100 µM | TGI (PC-3 prostate): > 100 µM | TGI (RPMI-8226 leukemia): > 100 µM | TGI (SF-268 CNS): 44.1 µM | TGI (SF-295 CNS): > 100 µM | TGI (SF-539 CNS): > 100 µM | TGI (SK-MEL-2 melanoma): 41.8 µM | TGI (SK-MEL-5 melanoma): 27.8 µM | TGI (SK-OV-3 ovarian): > 100 µM | TGI (SN12C renal): 93.7 µM | TGI (SNB-19 CNS): > 100 µM | TGI (SR leukemia): 81.5 µM | TGI (SW-620 colon): > 100 µM | TGI (T-47D breast): 55.1 µM | TGI (TK-10 renal): > 100 µM | TGI (U251 CNS): > 100 µM | TGI (UACC-257 melanoma): > 100 µM | TGI (UACC-62 melanoma): 42.6 µM | TGI (UO-31 renal): > 100 µM
